Laboratory results published in patent US7557113B2, “Substituted pyrrolo[3,2-d]pyrimidine derivatives” (Teijin Pharma Limited, priority 2003, dated 2009).

biological target: recombinant human GSK-3β (Homo sapiens, UniProt P49841); assay: Determination of Inhibition of GSK-3 Activity (phospho-glycogen synthase peptide-2 phosphorylation, [γ-33P]ATP, scintillation counting); format: biochemical; conditions: group stated as 20 nM<IC50<100 nM; read-out: GSK-3 inhibitor activity values (IC50 values)
Method: The reaction was initiated by adding 25 μL of phospho-glycogen synthase peptide-2 substrate solution [containing 6 μM phospho-glycogen synthase peptide-2, 20 μM ATP, 16 mM MOPS buffer (pH 7.0), 0.2 mM EDTA, 20 mM magnesium acetate, 0.1 μ Ci[γ-^33P]ATP (relative activity: approximately 110 TBq/mmol)] to 5 μL of each test compound using 5% dimethylsulfoxide as a solvent, and further adding 20 μL of GSK-3β enzyme solution [containing 10 mU recombinant human GSK-3β, 20 mM MOPS buffer (pH 7.0), 1 mM EDTA, 0.1% polyoxyethylene lauryl ether(23 Lauryl Ether; Brij 35), 5% glycerol, and 0.1% β-mercaptoethanol. After 20 minutes at room temperature, the reaction was terminated by the addition of the equivalent amount of 200 mM phosphoric acid solution. 90 μL of the reaction product was spotted onto a multiscreen PH plate (manufactured by Millipore) and washed with 100 mM phosphoric acid solution. The plate was dried, and 30 μL of MicroScint-O (manufactured by Packard BioScience) was added thereto. To evaluate inhibitory activity, cpm was counted using a scintillation counter. Here, Phospho GS Peptide 2 is an amino acid peptide having the following sequence: […]P)-Glu-Asp-Glu-Glu-Glu.

Chain of recombinant human GSK-3β (P49841 whole entry): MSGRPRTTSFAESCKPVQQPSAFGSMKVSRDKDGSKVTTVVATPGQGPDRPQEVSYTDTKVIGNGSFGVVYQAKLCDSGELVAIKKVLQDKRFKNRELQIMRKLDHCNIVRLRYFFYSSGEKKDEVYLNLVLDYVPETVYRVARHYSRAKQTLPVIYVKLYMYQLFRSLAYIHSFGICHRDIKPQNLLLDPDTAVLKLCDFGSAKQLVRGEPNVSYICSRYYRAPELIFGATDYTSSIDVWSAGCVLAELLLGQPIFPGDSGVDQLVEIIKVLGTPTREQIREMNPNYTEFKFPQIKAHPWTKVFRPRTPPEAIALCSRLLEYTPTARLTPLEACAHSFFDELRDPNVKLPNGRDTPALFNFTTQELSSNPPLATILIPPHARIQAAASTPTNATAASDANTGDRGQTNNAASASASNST

Row | IC50 | SMILES
1 | 20 to 100 nM | CC(=O)NCCn1c(-c2sccc2Cl)c(-c2cccnc2)c2nc[nH]c(=O)c21 [Compound 217, N-{2-[6-(3-chloro(2-thienyl))-4-oxo-7-(3-pyridyl)-3-hydropyrrolo[3,2-d]pyrimidin-5-yl]ethyl}acetamide]
2 | 20 to 100 nM | CC(C)(C)CC(=O)NCCn1c(-c2sccc2Cl)c(-c2cccnc2)c2nc[nH]c(=O)c21 [Compound 626, N-{2-[6-(3-chloro-thiophen-2-yl)-4-oxo-7-pyridin-3-yl-3-hydropyrrolo[3,2-d]pyrimidin-5-yl]ethyl}-t-butylacetylamide]
3 | 20 to 100 nM | O=C(NCCn1c(-c2sccc2Cl)c(-c2cccnc2)c2nc[nH]c(=O)c21)Nc1ccccc1 [Compound 793, 1-{2-[6-(3-chloro-thiophen-2-yl)-4-oxo-7-pyridin-3-yl-3-hydropyrrolo[3,2-d]pyrimidin-5-yl]ethyl}-3-phenylurea]
4 | 20 to 100 nM | Cc1ccc(CNC(=O)CCCn2c(C3CC3)c(-c3cccnc3)c3nc[nH]c(=O)c32)cc1 [Compound 2331, 4-(6-cyclopropyl-4-oxo-7-(3-pyridyl)(3-hydropyrrolo[3,2-d]pyrimidin-5-yl))-N-[(4-methylphenyl)methyl]butanamide]
5 | 20 to 100 nM | Cc1ccc(CNC(=O)CCCn2c(C3CC3)c(-c3cnn(C)c3)c3nc[nH]c(=O)c32)cc1 [Compound 2332, 4-[6-cyclopropyl-7-(1-methylpyrazol-4-yl)-4-oxo-(3-hydropyrrolo[3,2-d]pyrimidin-5-yl)]-N-[(4-methylphenyl)methyl]butanamide]

same assay, conditions: group stated as IC50<100 nM; read-out: GSK-3 inhibitor activity values (IC50 values)

Row | IC50 | SMILES
6 | < 100 nM | CC(C)(C)CC(=O)NCCn1c(-c2sccc2Cl)c(-c2cn[nH]c2)c2nc[nH]c(=O)c21 [Compound 629, N-{2-[7-(1H-pyrazol-4-yl)-6-(3-chloro-thiophen-2-yl)-4-oxo-3-hydropyrrolo[3,2-d]pyrimidin-5-yl]ethyl}-t-butylacetylamide]
